Data set [1] in a line: Expected rise in serum 25-hydroxyvitamin D3 in a human after a single dose. To be noted: single dose of 50 μg to a human (about 60 kg). Format: in vivo.
Data set [2] is described as follows: Example 1: single-dose pharmacokinetics of serum 25-hydroxyvitamin D3 in miniature swine. Format: in vivo. The following applies: Yucatan miniature swine. As for the experimental part:
Nine oral vitamin D formulations were prepared according to Table 3 below by homogeneously mixing the identified components in the amounts shown and filling the mixtures into hard gelatin capsules. Formulation 9 is an immediate-release formulation according to the prior art, wherein MIGLYOL 812N is the trade name for caprylic/capric triglycerides, available from CONDEA Chemie GmbH of Cranford, N.J., USA. […] Each group included five animals.
Blood was collected pre-dose, and at 0.5, 1, 2, 4, 6, 8, 12, 24, 48, 96, 168, 240, 336, 432, 504, 576, and 672 hours post dosing. Serum 25-hydroxyvitamin D3 levels were assayed by Liquid Chromatography/Mass Spectrometry/Mass Spectrometry (LC MS/MS).

Where [3] appears, read: 250 μg via intravenous injection, AVG.

Broadly, the Cmax is the peak of the concentration-time curve. In general, Tmax refers to the time at which the peak concentration occurs.

Regarding `C=C1CC[C@H](O)C/C1=C/C=C1\CCC[C@]2(C)[C@@H]([C@H](C)CCCC(C)(C)O)CC[C@@H]12` [25-hydroxyvitamin D3], in data set [1], the “expected increase in serum levels of 25-hydroxyvitamin D3” value is reported as “about 1.4 ng/ml”.
For `C=C1CC[C@H](O)C/C1=C/C=C1\CCC[C@]2(C)[C@@H]([C@H](C)CCCC(C)(C)O)CC[C@@H]12` [Group 10, 25-hydroxyvitamin D3], the “AUC (0-672 hr)” value in data set [2] (250 μg 25-hydroxyvitamin D3 via intravenous injection, AVG) is 15038.0 ng·h/mL. The same compound had a BA in data set [2] (250 μg via intravenous injection) of 100.0%. For the same compound, in data set [2] (setting [3]), the “AUC (0-INF)” value was 16616.1 ng·h/mL, the Cmax was found to be 154.9 ng/mL, the T1/2 was 132.4 h and the Tmax was determined as 1.5 h.

The values are drawn from patent US9498486B1, “Method for controlled release oral dosage of a vitamin D compound” (OPKO RENAL, LLC, priority 2007, dated 2016).
